Measurements as given in PMC7397269, “Synthesis and Evaluation of New Coumarin Derivatives as Antioxidant, Antimicrobial, and Anti-Inflammatory Agents” (Molecules, 2020).
Values after ≈ are worked out from the molar mass of the structure shown.

What was measured:
[1] = tested on: Pseudomonas aeruginosa ATCC 27,953; assay: Agar well diffusion, P. aeruginosa; format: cell-based; settings: ATCC27, 100 μL of 10 mg/mL in DMSO, read-out: diameter of inhibition zone, PA
In short: (§1)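 Values are mean inhibition zone diameters (mm) from triplicate plates incubated 24 h at 37 °C. Wells 10 mm wide held 100 μL of compound at 10 mg/mL in DMSO.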

[2] = tested on: Saccharomyces cerevisiae local isolate; assay: MIC, two-fold serial dilution, S. cerevisiae; format: cell-based; settings: two-fold serial dilution, S. cerevisiae, read-out: Minimum inhibitory concentration, SC
Excerpt: (§2) The new molecules were individually tested for their antimicrobial activity in vitro against standard bacteria strains from the American Type Culture Collection (ATCC), namely, Staphylococcus aureus ATCC 29213, Bacillus subtilis ATCC 6633, Bacillus megaterium ATCC 9885 (Gram-positive), Escherichia coli ATCC 2592, and Pseudomonas aeruginosa ATCC 27,953 (Gram-negative). The compounds were also microbiologically tested against locally isolated Saccharomyces cerevisiae (yeast) and the standard Agricultural Research Service Culture Collection (NRRL) strain of the yeast-like pathogenic fungus Candida albicans NRRL Y-477. Primary screening was conducted using the agar well diffusion method using nutrient agar (NA) medium and Sabourand dextrose agar (SDA) medium for the tested pathological bacteria and yeast, respectively. […].
(§3) The bacteriostatic activity of the active compounds (having IZ > 16 mm) was then evaluated using the two-fold serial dilution technique. Two-fold serial dilutions of the tested compounds solutions were prepared using the proper nutrient broth to reach final concentrations of 1000, 500, 250, and 125 μg/mL. The tubes were then inoculated with the test microorganisms grown in their suitable broth at 37 °C for 24 h (1 × 10^8 CFU/mL for bacteria and 1 × 10^6 CFU/mL of yeast), 0.1 mL of the above inoculum was administered per 5 mL, and the tubes were incubated at 37 °C for 24 h. The lowest concentration showing no growth was taken as the MIC.

[3] = tested on: Bacillus megaterium ATCC 9885; assay: MIC, two-fold serial dilution, B. megaterium; format: cell-based; settings: Priestia megaterium, ATCC9885, read-out: Minimum inhibitory concentration, BM
Excerpt: as §2, §3

[4] = tested on: Pseudomonas aeruginosa ATCC 27,953; assay: MIC, two-fold serial dilution, P. aeruginosa; format: cell-based; settings: ATCC27, read-out: Minimum inhibitory concentration, PA
Excerpt: as §2, §3

[5] = tested on: Bacillus megaterium ATCC 9885; assay: Agar well diffusion, B. megaterium; format: cell-based; settings: Priestia megaterium, ATCC9885, 100 μL of 10 mg/mL in DMSO, read-out: diameter of inhibition zone, BM
In short: as §1

[6] = tested on: Saccharomyces cerevisiae local isolate; assay: Agar well diffusion, S. cerevisiae; format: cell-based; settings: well diffusion, 100 μL of 10 mg/mL in DMSO, S. cerevisiae, read-out: diameter of inhibition zone, SC
In short: as §1

[7] = tested on: Escherichia coli ATCC 2592; assay: Agar well diffusion, E. coli; format: cell-based; settings: ATCC2592, 100 μL of 10 mg/mL in DMSO, read-out: diameter of inhibition zone, EC
In short: as §1

[8] = tested on: Bacillus subtilis ATCC 6633; assay: MIC, two-fold serial dilution, B. subtilis; format: cell-based; settings: ATCC6633, read-out: Minimum inhibitory concentration, BS
Excerpt: as §2, §3

[9] = tested on: Escherichia coli ATCC 2592; assay: MIC, two-fold serial dilution, E. coli; format: cell-based; settings: ATCC2592, read-out: Minimum inhibitory concentration, EC
Excerpt: as §2, §3

[10] = tested on: Bacillus subtilis ATCC 6633; assay: Agar well diffusion, B. subtilis; format: cell-based; settings: ATCC6633, 100 μL of 10 mg/mL in DMSO, read-out: diameter of inhibition zone, BS
In short: as §1

[11] = tested on: Staphylococcus aureus ATCC 29213; assay: MIC, two-fold serial dilution, S. aureus; format: cell-based; settings: ATCC29213, read-out: Minimum inhibitory concentration, SA
Excerpt: as §2, §3

[12] = tested on: Staphylococcus aureus ATCC 29213; assay: Agar well diffusion, S. aureus; format: cell-based; settings: ATCC29213, 100 μL of 10 mg/mL in DMSO, read-out: diameter of inhibition zone, SA
In short: as §1

[13] = tested on: Candida albicans NRRL Y-477; assay: MIC, two-fold serial dilution, C. albicans; format: cell-based; settings: NRRLY477, read-out: Minimum inhibitory concentration, CA
Excerpt: as §2, §3

[14] = tested on: Candida albicans NRRL Y-477; assay: Agar well diffusion, C. albicans; format: cell-based; settings: NRRLY477, 100 μL of 10 mg/mL in DMSO, read-out: diameter of inhibition zone, CA
In short: as §1

[15] = DPPH antioxidant assay (radical scavenging); format: biochemical; settings: mean ± SD (n = 3)
Experimental: The antioxidant effects of the synthesised compounds were assessed using the 2,2-diphenyl-1-picrylhydrazyl (DPPH) antioxidant assay. Table 1 summarises the antioxidant effects of the test samples and ascorbic acid except for compound 5b because it was produced in poor yield.
The radical scavenging activity of the synthesised compounds was measured using the DPPH microplate-based method. The absorbance was measured using a microplate/cuvette reader (Spectramax M5, Molecular Devices, San Jose, CA, USA). Reference standard ascorbic acid was utilised as the positive control for this assay. Test samples were prepared at a starting concentration of 200 μg/mL after mixing with 100 μL of 0.2 mM DPPH methanolic solution. […] Samples were incubated with DPPH in the dark for 30 min at room temperature (25 °C). The methanolic DPPH solution was prepared daily and stored in a flask covered with aluminium foil. DPPH radicals have an absorption maximum (λmax) at 515 nm, at which the absorbance values were measured and converted into a percentage of antioxidant activity.
The methanolic DPPH solution without antioxidants was used as a control, and samples in methanol alone served as a background control. IC50 was determined using GraphPad Prism 7 (GraphPad Software Inc., San Diego, CA, USA). The percent inhibition was calculated using the following Equation (1):(1) % Inhibition=100−Sample Absorbance −Sample background Absorbance/DPPH only Absorbance×100
The assay was carried out in triplicate and performed as much as possible in an area protected against light. The data points are presented as the mean ± standard deviation (SD, n = 3).

trypsin = assay: Proteinase-inhibitory activity; format: biochemical; settings: 250 µg/mL; mean ± SD (n = 3)
Experimental: The newly synthesised compounds were individually tested for their in vitro anti-inflammatory activity against proteinase enzyme. […] This test was performed at the Pharmacology Department, Medical Research Division, National Research Centre, Cairo, Egypt. Furthermore, compounds 2–8 were evaluated for their COX1/COX2 inhibitory activities.
The test was performed according to El-Serwy et al. with minor modifications. The reaction mixture (2 mL) contained 0.06 mg trypsin, 20 mM Tris HCl buffer (pH 7.4), and 1 mL test sample (250 µg/mL for each compound). After incubating for 5 min, 1 mL of 0.8% (w/v) casein was added. The mixture was incubated for an additional 20 min. The reaction was arrested by adding 1 mL of 10% perchloric acid. The cloudy suspension was centrifuged, and the absorbance of the supernatant was read at 280 nm. Reference standard aspirin was used as the positive control. The experiment was performed in triplicate. The percent inhibition of protein denaturation was calculated using the following Equation (2):(2) % Inhibition=100−A control −A test/A control×100 where Acontrol and Atest represent the absorbance of the control reaction without and with the sample, respectively.

tested microorganisms = assay: MIC, summary over the tested microorganisms; format: cell-based; settings: two-fold serial dilution; read-out: MIC against one or more tested microorganisms
Excerpt: as §2, §3

| SMILES | zone of inhibition at 10000 µg/mL [1] [mm] | MIC [2] [µg/mL] | MIC [3] [µg/mL] | MIC [4] [µg/mL] | melting point [°C] | zone of inhibition at 10000 µg/mL [5] [mm] | zone of inhibition at 10000 µg/mL [6] [mm] | zone of inhibition at 10000 µg/mL [7] [mm] | MIC [8] [µg/mL] | MIC [9] [µg/mL] | zone of inhibition at 10000 µg/mL [10] [mm] | MIC [11] [µg/mL] | zone of inhibition at 10000 µg/mL [12] [mm] | MIC [13] [µg/mL] | zone of inhibition at 10000 µg/mL [14] [mm] | IC50 [15] | % Inhibition (proteinase) (trypsin) [%] | MIC (tested microorganisms) [µg/mL] |
| --- | --- | --- | --- | --- | --- | --- | --- | --- | --- | --- | --- | --- | --- | --- | --- | --- | --- | --- |
| Cc1ccc2oc(=O)c(S(=O)(=O)Nc3ccc(C(=O)/C=C/c4ccc([N+](=O)[O-])cc4)cc3)c(O)c2c1 [9b, (E)-4-Hydroxy-6-methyl-N-(4-(3-(4-nitrophenyl)acryloyl)phenyl)-2-oxo-2H-chromene-3-sulfonamide] | 26 | 500 (≈ 987 µM) | 500 (≈ 987 µM) | 250 (≈ 494 µM) | 220 | 25 | 25 | 26 | 500 (≈ 987 µM) | 250 (≈ 494 µM) | 24 | 500 (≈ 987 µM) | 22 | 500 (≈ 987 µM) | 23 | — ((—): inactive (IC50 > 200 μg/mL)) |  |  |
| O=C(/C=C/c1ccc(Cl)cc1)c1ccc(NS(=O)(=O)c2c(O)c3cc(Cl)ccc3oc2=O)cc1 [9c, (E)-6-Chloro-N-(4-(3-(4-chlorophenyl)acryloyl)phenyl)-4-hydroxy-2-oxo-2H-chromene-3-sulfonamide] | 30 | 125 (≈ 242 µM) | 250 (≈ 484 µM) | 250 (≈ 484 µM) | 157 to 159 | 30 | 31 to 32 | 30 | 250 (≈ 484 µM) | 250 (≈ 484 µM) | 29 | 250 (≈ 484 µM) | 28 | 125 (≈ 242 µM) | 30 | — ((—): inactive (IC50 > 200 μg/mL)) | 17.6 ± 6.86 | 125 (≈ 242 µM) |
| COc1ccc(/C=C/C(=O)c2ccc(NS(=O)(=O)c3c(O)c4cc(Cl)ccc4oc3=O)cc2)cc1 [9e, (E)-6-Chloro-4-hydroxy-N-(4-(3-(4-methoxyphenyl)acryloyl)phenyl)-2-oxo-2H-chromene-3-sulfonamide] | 21 | 250 (≈ 488 µM) | 500 (≈ 977 µM) | 500 (≈ 977 µM) | > 300 | 20 | 29 | 21 | 500 (≈ 977 µM) | 500 (≈ 977 µM) | 21 | 500 (≈ 977 µM) | 23 | 500 (≈ 977 µM) | 23 | — ((—): inactive (IC50 > 200 μg/mL)) | 22.83 ± 4.88 |  |
| COc1ccc(/C=C/C(=O)c2ccc(NS(=O)(=O)c3c(O)c4cc(C)ccc4oc3=O)cc2)cc1 [9f, (E)-4-Hydroxy-N-(4-(3-(4-methoxyphenyl)acryloyl)phenyl)-6-methyl-2-oxo-2H-chromene-3-sulfonamide] | 28 | 500 (≈ 1020 µM) | 250 (≈ 509 µM) | 250 (≈ 509 µM) | > 300 | 26 | 26 | 26 | 500 (≈ 1020 µM) | 250 (≈ 509 µM) | 25 | 500 (≈ 1020 µM) | 25 | 500 (≈ 1020 µM) | 24 | — ((—): inactive (IC50 > 200 μg/mL)) | 21.7 ± 7.6 |  |
| O=C(O)c1cn(C2CC2)c2cc(N3CCNCC3)c(F)cc2c1=O [Ciprofloxacin, reference compound] | 30 |  | 125 (≈ 377 µM) | 125 (≈ 377 µM) |  | 30 | < 15 | 30 | 125 (≈ 377 µM) | 125 (≈ 377 µM) | 30 | 125 (≈ 377 µM) | 28 |  | < 15 |  |  |  |
